# Assay results: paper PMC7385619, “A triple action CDK4/6-PI3K-BET inhibitor with augmented cancer cell cytotoxicity” (Cell Discovery, 2020)
# Like-named read-outs stand apart in the source and are kept apart here.
# What was measured:
# Assay in all cases: KINOMEscan assay (Eurofins DiscoverX)
# Type in all cases: binding
# kinome (kinase panel) [1] = biological target: T1, kinome (kinase panel) (Homo sapiens, UniProt P48730); conditions: CSNK1D; 1000 nM; read-out: Percent Control
# T1 construct: purchased Eurofins DiscoverX
# kinome (kinase panel) [2] = biological target: T2, kinome (kinase panel) (Homo sapiens, UniProt O95819); conditions: MAP4K4; 1000 nM; read-out: Percent Control
# T2 construct: purchased Eurofins DiscoverX
# kinome (kinase panel) [3] = biological target: T3, kinome (kinase panel) (Homo sapiens, UniProt O00444); conditions: PLK4; 1000 nM; read-out: Percent Control
# T3 construct: purchased Eurofins DiscoverX
# kinome (kinase panel) [4] = biological target: T4, kinome (kinase panel) (Homo sapiens, UniProt Q16816); conditions: PHKG1; 1000 nM; read-out: Percent Control
# T4 construct: purchased Eurofins DiscoverX
# kinome (kinase panel) [5] = biological target: T5, kinome (kinase panel) (Homo sapiens, UniProt P23458); conditions: 1000 nM, read-out: Percent Control
# T5 construct: purchased Eurofins DiscoverX
# kinome (kinase panel) [6] = biological target: T6, kinome (kinase panel) (Homo sapiens, UniProt P31152); conditions: ERK4 (Entrez MAPK4); 1000 nM; read-out: Percent Control
# T6 construct: purchased Eurofins DiscoverX
# kinome (kinase panel) [7] = biological target: T7, kinome (kinase panel) (Homo sapiens, UniProt P36888, N841I); conditions: […]; 1000 nM; read-out: Percent Control
# T7 construct: purchased Eurofins DiscoverX
# kinome (kinase panel) [8] = biological target: T8, kinome (kinase panel) (Homo sapiens, UniProt O95382); conditions: ASK2 (Entrez MAP3K6); 1000 nM; read-out: Percent Control
# T8 construct: purchased Eurofins DiscoverX
# kinome (kinase panel) [9] = biological target: T9, kinome (kinase panel) (Homo sapiens, UniProt Q9UKE5); conditions: TNIK; 1000 nM; read-out: Percent Control
# T9 construct: purchased Eurofins DiscoverX
# kinome (kinase panel) [10] = biological target: T10, kinome (kinase panel) (Homo sapiens, UniProt Q9NYL2); conditions: ZAK; 1000 nM; read-out: Percent Control
# T10 construct: purchased Eurofins DiscoverX
# kinome (kinase panel) [11] = biological target: T11, kinome (kinase panel) (Homo sapiens, UniProt O75385); conditions: ULK1; 1000 nM; read-out: Percent Control
# T11 construct: purchased Eurofins DiscoverX
# kinome (kinase panel) [12] = biological target: T12, kinome (kinase panel) (Homo sapiens, UniProt P19525); conditions: PRKR (Entrez EIF2AK2); 1000 nM; read-out: Percent Control
# T12 construct: purchased Eurofins DiscoverX
# kinome (kinase panel) [13] = biological target: T13, kinome (kinase panel) (Homo sapiens, UniProt Q13882); conditions: BRK (Entrez PTK6); 1000 nM; read-out: Percent Control
# T13 construct: purchased Eurofins DiscoverX
# kinome (kinase panel) [14] = biological target: T14, kinome (kinase panel) (Homo sapiens, UniProt Q14004); conditions: CDC2L5 (Entrez CDK13); 1000 nM; read-out: Percent Control
# T14 construct: purchased Eurofins DiscoverX
# kinome (kinase panel) [15] = biological target: T15, kinome (kinase panel) (Homo sapiens, UniProt Q9HBY8); conditions: SGK2; 1000 nM; read-out: Percent Control
# T15 construct: purchased Eurofins DiscoverX
# kinome (kinase panel) [16] = biological target: T16, kinome (kinase panel) (Homo sapiens, UniProt P51617); conditions: IRAK1; 1000 nM; read-out: Percent Control
# T16 construct: purchased Eurofins DiscoverX
# kinome (kinase panel) [17] = biological target: T17, kinome (kinase panel) (Homo sapiens, UniProt Q86Y07); conditions: VRK2; 1000 nM; read-out: Percent Control
# T17 construct: purchased Eurofins DiscoverX
# kinome (kinase panel) [18] = biological target: T18, kinome (kinase panel) (Homo sapiens, UniProt P00519, F317I)
# T18 construct: purchased Eurofins DiscoverX
# kinome (kinase panel) [19] = biological target: T19, kinome (kinase panel) (Homo sapiens, UniProt P07948); conditions: LYN; 1000 nM; read-out: Percent Control
# T19 construct: purchased Eurofins DiscoverX
# kinome (kinase panel) [20] = biological target: T20, kinome (kinase panel) (Homo sapiens, UniProt P22455); conditions: FGFR4; 1000 nM; read-out: Percent Control
# T20 construct: purchased Eurofins DiscoverX
# kinome (kinase panel) [21] = biological target: T21, kinome (kinase panel) (Homo sapiens, UniProt Q9H4A3); conditions: WNK1; 1000 nM; read-out: Percent Control
# T21 construct: purchased Eurofins DiscoverX
# kinome (kinase panel) [22] = biological target: T22, kinome (kinase panel) (Homo sapiens, UniProt Q16513); conditions: PKN2; 1000 nM; read-out: Percent Control
# T22 construct: purchased Eurofins DiscoverX
# kinome (kinase panel) [23] = biological target: T23, kinome (kinase panel) (Homo sapiens, UniProt Q13470); conditions: TNK1; 1000 nM; read-out: Percent Control
# T23 construct: purchased Eurofins DiscoverX
# kinome (kinase panel) [24] = biological target: T24, kinome (kinase panel) (Homo sapiens, UniProt O95747); conditions: OSR1 (Entrez OXSR1); 1000 nM; read-out: Percent Control
# T24 construct: purchased Eurofins DiscoverX
# kinome (kinase panel) [25] = biological target: T25, kinome (kinase panel) (Homo sapiens, UniProt O75914); conditions: PAK3; 1000 nM; read-out: Percent Control
# T25 construct: purchased Eurofins DiscoverX
# kinome (kinase panel) [26] = biological target: T26, kinome (kinase panel) (Homo sapiens, UniProt Q06187); conditions: BTK; 1000 nM; read-out: Percent Control
# T26 construct: purchased Eurofins DiscoverX
# kinome (kinase panel) [27] = biological target: T27, kinome (kinase panel) (Homo sapiens, UniProt Q9P289); conditions: MST4; 1000 nM; read-out: Percent Control
# T27 construct: purchased Eurofins DiscoverX
# kinome (kinase panel) [28] = biological target: T28, kinome (kinase panel) (Homo sapiens, UniProt O00506); conditions: YSK1 (STK25); 1000 nM; read-out: Percent Control
# T28 construct: purchased Eurofins DiscoverX
# kinome (kinase panel) [29] = biological target: T29, kinome (kinase panel) (Homo sapiens, UniProt P53667); conditions: LIMK1; 1000 nM; read-out: Percent Control
# T29 construct: purchased Eurofins DiscoverX
# kinome (kinase panel) [30] = biological target: T30, kinome (kinase panel) (Homo sapiens, UniProt P07947); conditions: YES (YES1); 1000 nM; read-out: Percent Control
# T30 construct: purchased Eurofins DiscoverX
# kinome (kinase panel) [31] = biological target: T31, kinome (kinase panel) (Homo sapiens, UniProt P42336, H1047Y); conditions: read-out: Percent Control
# T31 construct: purchased Eurofins DiscoverX
# kinome (kinase panel) [32] = biological target: T32, kinome (kinase panel) (Homo sapiens, UniProt Q9BX84); conditions: TRPM6; 1000 nM; read-out: Percent Control
# T32 construct: purchased Eurofins DiscoverX
# T18 sequence (P00519 whole entry F317I): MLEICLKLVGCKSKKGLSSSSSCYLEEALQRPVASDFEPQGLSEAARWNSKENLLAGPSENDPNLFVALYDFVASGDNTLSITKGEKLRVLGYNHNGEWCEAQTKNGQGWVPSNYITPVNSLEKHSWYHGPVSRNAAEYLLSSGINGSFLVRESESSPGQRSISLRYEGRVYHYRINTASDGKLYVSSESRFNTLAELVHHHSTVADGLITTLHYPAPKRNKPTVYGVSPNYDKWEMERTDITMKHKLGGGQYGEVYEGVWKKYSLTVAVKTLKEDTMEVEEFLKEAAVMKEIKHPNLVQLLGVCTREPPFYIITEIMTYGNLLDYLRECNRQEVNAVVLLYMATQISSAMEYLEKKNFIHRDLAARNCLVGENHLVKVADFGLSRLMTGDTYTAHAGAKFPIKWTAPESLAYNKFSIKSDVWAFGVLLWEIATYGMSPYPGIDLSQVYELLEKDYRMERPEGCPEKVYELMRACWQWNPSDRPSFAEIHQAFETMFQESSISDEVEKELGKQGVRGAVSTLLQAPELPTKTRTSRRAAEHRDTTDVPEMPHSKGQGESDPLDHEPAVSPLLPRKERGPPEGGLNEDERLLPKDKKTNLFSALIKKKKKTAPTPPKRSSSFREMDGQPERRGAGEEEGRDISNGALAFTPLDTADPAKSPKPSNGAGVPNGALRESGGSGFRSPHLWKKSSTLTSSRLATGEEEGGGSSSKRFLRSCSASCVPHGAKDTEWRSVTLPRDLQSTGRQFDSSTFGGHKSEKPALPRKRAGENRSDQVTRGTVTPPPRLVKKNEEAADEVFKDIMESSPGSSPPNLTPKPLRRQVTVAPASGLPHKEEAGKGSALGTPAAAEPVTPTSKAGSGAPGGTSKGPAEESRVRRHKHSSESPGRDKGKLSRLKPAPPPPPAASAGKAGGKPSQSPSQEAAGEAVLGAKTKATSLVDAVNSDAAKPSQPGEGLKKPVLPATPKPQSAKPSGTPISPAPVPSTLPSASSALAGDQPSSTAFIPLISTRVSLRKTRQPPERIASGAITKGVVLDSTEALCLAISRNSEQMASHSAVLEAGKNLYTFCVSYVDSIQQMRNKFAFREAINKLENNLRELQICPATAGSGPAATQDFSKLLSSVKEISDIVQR
# T5 sequence (P23458 whole entry): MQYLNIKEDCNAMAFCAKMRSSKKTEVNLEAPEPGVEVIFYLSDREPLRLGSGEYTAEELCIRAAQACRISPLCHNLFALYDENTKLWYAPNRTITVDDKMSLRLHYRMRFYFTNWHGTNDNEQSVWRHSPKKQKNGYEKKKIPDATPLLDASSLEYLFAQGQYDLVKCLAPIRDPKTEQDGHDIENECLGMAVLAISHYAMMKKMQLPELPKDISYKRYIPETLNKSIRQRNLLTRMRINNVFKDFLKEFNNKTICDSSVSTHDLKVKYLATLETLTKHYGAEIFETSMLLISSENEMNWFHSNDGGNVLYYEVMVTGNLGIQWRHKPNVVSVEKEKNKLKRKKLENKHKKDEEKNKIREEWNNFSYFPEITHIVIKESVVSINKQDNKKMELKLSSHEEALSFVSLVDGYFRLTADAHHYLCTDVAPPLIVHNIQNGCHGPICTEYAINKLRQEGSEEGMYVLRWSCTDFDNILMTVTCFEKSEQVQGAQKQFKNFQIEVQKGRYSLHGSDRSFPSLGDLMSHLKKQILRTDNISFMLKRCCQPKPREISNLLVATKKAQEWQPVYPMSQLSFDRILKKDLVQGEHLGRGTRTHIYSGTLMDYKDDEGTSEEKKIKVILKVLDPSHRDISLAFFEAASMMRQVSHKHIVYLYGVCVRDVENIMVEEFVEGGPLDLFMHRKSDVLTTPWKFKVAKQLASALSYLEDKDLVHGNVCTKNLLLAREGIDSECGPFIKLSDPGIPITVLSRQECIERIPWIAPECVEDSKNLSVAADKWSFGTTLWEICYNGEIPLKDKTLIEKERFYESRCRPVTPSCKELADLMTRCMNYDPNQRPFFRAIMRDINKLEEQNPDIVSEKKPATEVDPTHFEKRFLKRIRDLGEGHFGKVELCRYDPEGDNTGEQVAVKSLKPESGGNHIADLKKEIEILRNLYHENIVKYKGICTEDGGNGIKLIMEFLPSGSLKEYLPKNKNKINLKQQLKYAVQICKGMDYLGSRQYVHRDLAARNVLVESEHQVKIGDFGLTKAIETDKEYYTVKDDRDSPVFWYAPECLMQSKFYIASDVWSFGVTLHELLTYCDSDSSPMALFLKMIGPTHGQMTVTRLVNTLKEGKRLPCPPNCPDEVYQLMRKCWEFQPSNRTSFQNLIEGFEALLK
# T19 sequence (P07948 whole entry): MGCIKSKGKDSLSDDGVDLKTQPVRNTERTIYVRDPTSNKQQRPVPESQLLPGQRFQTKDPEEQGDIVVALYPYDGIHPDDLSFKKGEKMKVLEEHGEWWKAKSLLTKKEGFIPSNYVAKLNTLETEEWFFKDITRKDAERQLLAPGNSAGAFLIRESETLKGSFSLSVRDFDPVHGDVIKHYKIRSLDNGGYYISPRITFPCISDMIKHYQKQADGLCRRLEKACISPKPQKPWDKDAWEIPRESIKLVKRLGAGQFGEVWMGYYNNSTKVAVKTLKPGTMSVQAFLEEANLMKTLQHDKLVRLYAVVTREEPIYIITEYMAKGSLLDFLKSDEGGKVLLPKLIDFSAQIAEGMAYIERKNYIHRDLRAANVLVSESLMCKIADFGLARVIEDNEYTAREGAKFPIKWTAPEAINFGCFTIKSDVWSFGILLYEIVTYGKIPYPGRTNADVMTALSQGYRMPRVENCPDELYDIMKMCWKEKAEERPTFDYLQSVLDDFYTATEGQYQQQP
# T2 sequence (O95819 whole entry): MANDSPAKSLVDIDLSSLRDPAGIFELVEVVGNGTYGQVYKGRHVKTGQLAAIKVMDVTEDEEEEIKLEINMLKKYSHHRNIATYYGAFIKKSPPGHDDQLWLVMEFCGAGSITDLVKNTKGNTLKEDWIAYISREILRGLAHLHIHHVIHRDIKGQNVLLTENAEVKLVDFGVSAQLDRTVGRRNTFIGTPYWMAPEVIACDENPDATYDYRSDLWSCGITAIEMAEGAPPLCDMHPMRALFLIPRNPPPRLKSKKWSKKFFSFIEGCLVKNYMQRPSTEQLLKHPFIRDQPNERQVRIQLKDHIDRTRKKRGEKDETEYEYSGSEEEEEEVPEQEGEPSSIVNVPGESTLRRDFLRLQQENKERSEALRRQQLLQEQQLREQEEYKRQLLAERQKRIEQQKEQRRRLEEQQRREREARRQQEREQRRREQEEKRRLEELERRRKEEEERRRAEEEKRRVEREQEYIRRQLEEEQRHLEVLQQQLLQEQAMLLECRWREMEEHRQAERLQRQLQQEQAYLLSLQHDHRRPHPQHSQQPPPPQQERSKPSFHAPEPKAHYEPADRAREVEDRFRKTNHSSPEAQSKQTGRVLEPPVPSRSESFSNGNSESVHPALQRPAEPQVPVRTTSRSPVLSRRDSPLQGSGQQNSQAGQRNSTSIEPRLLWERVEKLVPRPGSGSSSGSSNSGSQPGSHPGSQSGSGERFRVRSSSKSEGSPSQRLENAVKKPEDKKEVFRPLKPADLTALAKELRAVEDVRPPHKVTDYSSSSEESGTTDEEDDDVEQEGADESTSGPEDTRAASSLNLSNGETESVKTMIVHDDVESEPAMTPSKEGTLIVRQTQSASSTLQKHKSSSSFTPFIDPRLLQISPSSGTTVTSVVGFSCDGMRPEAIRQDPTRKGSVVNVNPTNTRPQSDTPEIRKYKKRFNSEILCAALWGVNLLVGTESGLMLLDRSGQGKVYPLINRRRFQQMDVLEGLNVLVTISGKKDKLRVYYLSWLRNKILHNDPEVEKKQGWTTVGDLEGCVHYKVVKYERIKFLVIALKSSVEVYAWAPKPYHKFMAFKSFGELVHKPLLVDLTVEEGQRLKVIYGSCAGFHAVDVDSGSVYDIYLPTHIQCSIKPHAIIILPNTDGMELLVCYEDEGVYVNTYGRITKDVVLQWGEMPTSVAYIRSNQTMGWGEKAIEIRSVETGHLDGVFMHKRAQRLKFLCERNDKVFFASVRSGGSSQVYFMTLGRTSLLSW
# T11 sequence (O75385 whole entry): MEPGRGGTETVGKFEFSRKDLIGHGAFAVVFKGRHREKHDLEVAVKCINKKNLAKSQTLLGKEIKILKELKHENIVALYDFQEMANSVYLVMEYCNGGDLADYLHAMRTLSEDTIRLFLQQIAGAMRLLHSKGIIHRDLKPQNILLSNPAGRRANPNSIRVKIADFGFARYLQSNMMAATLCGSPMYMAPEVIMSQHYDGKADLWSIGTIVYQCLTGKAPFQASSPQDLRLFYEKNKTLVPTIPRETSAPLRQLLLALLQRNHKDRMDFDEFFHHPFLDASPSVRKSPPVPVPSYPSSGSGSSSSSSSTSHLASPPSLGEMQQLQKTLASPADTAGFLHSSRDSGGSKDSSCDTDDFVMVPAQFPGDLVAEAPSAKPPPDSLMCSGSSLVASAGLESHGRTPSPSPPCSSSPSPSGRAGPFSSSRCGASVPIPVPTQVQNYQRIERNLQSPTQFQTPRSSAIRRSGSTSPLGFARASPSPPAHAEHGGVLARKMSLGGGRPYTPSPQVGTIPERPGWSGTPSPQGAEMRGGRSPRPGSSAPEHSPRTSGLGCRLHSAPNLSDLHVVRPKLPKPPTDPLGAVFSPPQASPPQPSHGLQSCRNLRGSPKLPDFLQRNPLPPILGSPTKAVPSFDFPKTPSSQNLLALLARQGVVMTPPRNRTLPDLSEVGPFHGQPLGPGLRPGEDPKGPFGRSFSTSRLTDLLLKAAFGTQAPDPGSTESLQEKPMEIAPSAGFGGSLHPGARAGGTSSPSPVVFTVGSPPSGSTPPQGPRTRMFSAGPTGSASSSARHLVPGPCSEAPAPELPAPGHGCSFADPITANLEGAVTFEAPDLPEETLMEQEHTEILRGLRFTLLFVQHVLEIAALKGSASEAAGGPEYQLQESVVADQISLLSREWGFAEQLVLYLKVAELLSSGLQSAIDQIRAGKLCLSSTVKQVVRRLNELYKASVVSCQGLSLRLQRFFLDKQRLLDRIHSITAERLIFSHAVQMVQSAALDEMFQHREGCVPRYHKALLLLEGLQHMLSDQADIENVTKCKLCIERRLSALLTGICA
smiles,measurement,setting,value
CN(C)C(=O)c1cc2cnc(Nc3ccc(-c4csc5c(=O)cc(N6CCOCC6)oc45)cc3)nc2n1C1CCCC1 [SRX3177],remaining binding at 1 µM,kinome (kinase panel) [1],83%
same,remaining binding at 1 µM,kinome (kinase panel) [2],100%
same,remaining binding at 1 µM,kinome (kinase panel) [3],60%
same,remaining binding at 1 µM,kinome (kinase panel) [4],88%
same,remaining binding at 1 µM,kinome (kinase panel) [5]; JAK1(JH1domain-catalytic),96%
same,remaining binding at 1 µM,kinome (kinase panel) [5]; JAK1(JH2domain-pseudokinase),9.5%
same,remaining binding at 1 µM,kinome (kinase panel) [6],96%
same,remaining binding at 1 µM,kinome (kinase panel) [7],7.2%
same,remaining binding at 1 µM,kinome (kinase panel) [8],91%
same,remaining binding at 1 µM,kinome (kinase panel) [9],95%
same,remaining binding at 1 µM,kinome (kinase panel) [10],80%
same,remaining binding at 1 µM,kinome (kinase panel) [11],90%
same,remaining binding at 1 µM,kinome (kinase panel) [12],97%
same,remaining binding at 1 µM,kinome (kinase panel) [13],100%
same,remaining binding at 1 µM,kinome (kinase panel) [14],4.1%
same,remaining binding at 1 µM,kinome (kinase panel) [15],65%
same,remaining binding at 1 µM,kinome (kinase panel) [16],32%
same,remaining binding at 1 µM,kinome (kinase panel) [17],21%
same,Percent Control,kinome (kinase panel) [18],96
same,remaining binding at 1 µM,kinome (kinase panel) [18]; read-out: Percent Control,81%
same,remaining binding at 1 µM,kinome (kinase panel) [19],94%
same,remaining binding at 1 µM,kinome (kinase panel) [20],86%
same,remaining binding at 1 µM,kinome (kinase panel) [21],93%
same,remaining binding at 1 µM,kinome (kinase panel) [22],70%
same,remaining binding at 1 µM,kinome (kinase panel) [23],57%
same,remaining binding at 1 µM,kinome (kinase panel) [24],88%
same,remaining binding at 1 µM,kinome (kinase panel) [25],100%
same,remaining binding at 1 µM,kinome (kinase panel) [26],67%
same,remaining binding at 1 µM,kinome (kinase panel) [27],41%
same,remaining binding at 1 µM,kinome (kinase panel) [28],100%
same,remaining binding at 1 µM,kinome (kinase panel) [29],85%
same,remaining binding at 1 µM,kinome (kinase panel) [30],93%
same,remaining binding at 1 µM,kinome (kinase panel) [31],34%
same,remaining binding at 1 µM,kinome (kinase panel) [32],99%
